From ChEMBL document CHEMBL3763059, “Lanostane-type triterpenes from the fungal endophyte Scleroderma UFSMSc1 (Persoon) Fries” (2016) come the findings set out here.

Format in all cases: functional
One experiment relates to Candida parapsilosis. Kind of experiment: Antifungal activity against Candida parapsilosis ATCC 22018 after 48 hrs by micro dilution method. As to conditions: for MIC: Lodderomyces parapsilosis, ATCC 22018, 48 h.
The subject of the next experiment is Pichia kudriavzevii. The experiment is described as follows: Antifungal activity against Candida krusei ATCC 6258 after 48 hrs by micro dilution method. As to conditions: for MIC: Pichia kudriavzevii, ATCC 6258, 48 h.
The next experiment has as its system Candida albicans. The experiment is described as follows: Antifungal activity against Candida albicans ATCC 10231 after 48 hrs by microdilution method. As to conditions: for MIC: Candida albicans, ATCC 10231, 48 h. For orientation: In broth dilution the organism is exposed to a series of concentrations in liquid medium.
The next experiment has as its system Candida tropicalis. Kind of experiment: Antifungal activity against Candida tropicalis ATCC 18803 after 48 hrs by micro dilution method. As to conditions: for MIC: Candida tropicalis, ATCC 18803, 48 h.

Values after ≈ are worked out from the molar mass of the structure shown.

A word on the MIC: it is the lowest concentration found to suppress growth. In the case of `C=C(C)/C=C/C[C@@H](C)[C@H]1CC[C@@]2(C)C3=C(CC[C@]12C)[C@@]1(C)CC[C@H](O)C(C)(C)[C@@H]1CC3`, the MLC in the experiment with Candida parapsilosis was 50 µg/mL (≈ 118 µM); with Pichia kudriavzevii, 100 µg/mL (≈ 235 µM); in the experiment with Candida albicans, over 100 µg/mL; in the experiment on Candida tropicalis, 100 µg/mL (≈ 235 µM). Moreover, the MIC against Candida parapsilosis is 25 µg/mL (≈ 58.9 µM); in the experiment with Pichia kudriavzevii, 12.5 µg/mL (≈ 29.4 µM); in the experiment with Candida albicans, 50 µg/mL (≈ 118 µM); in the experiment on Candida tropicalis, 50 µg/mL (≈ 118 µM).

As for `C[C@H](C/C=C/C(C)(C)O)[C@H]1CC[C@@]2(C)C3=C(CC[C@]12C)[C@@]1(C)CC[C@H](O)C(C)(C)[C@@H]1CC3` (relative stereo), the MLC with Candida parapsilosis was 100 µg/mL (≈ 226 µM); with Pichia kudriavzevii, 100 µg/mL (≈ 226 µM); in the experiment with Candida albicans, over 100 µg/mL; in the experiment with Candida tropicalis, over 100 µg/mL. Also, the MIC against Candida parapsilosis was 50 µg/mL (≈ 113 µM); against Pichia kudriavzevii, 12.5 µg/mL (≈ 28.2 µM); against Candida albicans it was 50 µg/mL (≈ 113 µM); in the experiment on Candida tropicalis it was 50 µg/mL (≈ 113 µM).

For the molecule `COC(C)(C)/C=C/C[C@@H](C)[C@H]1CC[C@@]2(C)C3=C(CC[C@]12C)[C@@]1(C)CC[C@H](O)C(C)(C)[C@@H]1CC3` (relative stereo), the MLC in the experiment with Candida parapsilosis was found to be 25 µg/mL (≈ 54.7 µM); with Pichia kudriavzevii, 12.5 µg/mL (≈ 27.4 µM); with Candida albicans, 25 µg/mL (≈ 54.7 µM); in the experiment with Candida tropicalis, 25 µg/mL (≈ 54.7 µM). Besides, the MIC against Candida parapsilosis was 12.5 µg/mL (≈ 27.4 µM); against Pichia kudriavzevii, 6.25 µg/mL (≈ 13.7 µM); with Candida albicans, 25 µg/mL (≈ 54.7 µM); in the experiment with Candida tropicalis, 25 µg/mL (≈ 54.7 µM).
